Measured values published in patent US20050250677A1, “Glycopeptide antibiotic derivatives” (priority 2002, published 2005).

Tests used:
HIV-1 (IIIB) = experiment: Inhibition of HIV-1 (IIIB)-induced cytopathicity (giant cell formation) in CEM cells; assay type: cell-based; details: read-out: EC50 HIV-1 (concentration required to inhibit HIV-induced giant cell formation by 50%); HIV-1, CEM cell cultures
Experimental: (§1) A variety of glycopeptide antibiotic derivatives of vancomycin, eremomycin and teicoplanin including their aglycon derivatives were evaluated for their inhibitory activity against HIV-1 (IIIB) and HIV-2(ROD) in CEM cell cultures.

HIV-2(ROD) = experiment: Inhibition of HIV-2 (ROD)-induced cytopathicity (giant cell formation) in CEM cells; assay type: cell-based; details: read-out: EC50 HIV-2 (concentration required to inhibit HIV-induced giant cell formation by 50%); HIV-2, CEM cell cultures
Experimental: as §1

murine leukemia L1210 = experiment: Cytostatic activity assay, L1210 cells; assay type: cell-based; details: read-out: IC50 L1210 (compound concentration required to inhibit tumor cell proliferation by 50%)
[1] = tested on: human lymphocyte Molt4/clone 8; experiment: Cytostatic activity assay, Molt4/clone 8 cells; assay type: cell-based; details: read-out: IC50 Molt4/C8 (compound concentration required to inhibit tumor cell proliferation by 50%)
human lymphocyte CEM = experiment: Cytostatic activity assay, CEM cells; assay type: cell-based; details: read-out: IC50 CEM (compound concentration required to inhibit tumor cell proliferation by 50%)
[2] = tested on: SARS virus (strain Frankfurt-1); experiment: microbe, parasite or virus in culture; assay type: cell-based, human corona (SARS) virus; details: SARS virus in Vero cells; read-out: EC50 SARS virus
FCK cells = details: read-out: CC50 FCK; FCK cells
Vero cells = details: read-out: CC50 Vero
FCV = experiment: Feline corona virus assay in Feline Crandel kidney cells (MTS); assay type: cell-based; details: FCV in FCK cells; read-out: EC50 FCV
Experimental: Feline Crandel kidney cells were seeded in 96-well microtiter plates at 24,000 cells/well. Then, 24 hrs later, an appropriate inoculum of FCV is added together with 5-fold dilutions of the test compounds. After 4 days, a MTS/PMS solution was added to each well. Following a 90 min incubation period at 37° C., the optical density of the wells was read at 498 nm in a microplate reader.

SMILES | EC50 (HIV-1 (IIIB)) [µM] | EC50 (HIV-2(ROD)) [µM] | IC50 (murine leukemia L1210) [µM] | IC50 [1] [µM] | IC50 (human lymphocyte CEM) [µM] | EC50 [2] [µM] | CC50 (FCK cells) [µM] | CC50 (Vero cells) [µM] | EC50 (FCV) [µM]
CNC(CC(C)C)C(=O)NC1C(=O)NC(CC(N)=O)C(=O)NC2C(=O)NC3C(=O)NC(C(=O)NC(C(=O)N(C(=O)NC4CCCCC4)C4CCCCC4)c4cc(O)cc(O)c4-c4cc3ccc4O)C(O)c3ccc(cc3)Oc3cc2cc(c3O)Oc2ccc(cc2Cl)C1O (stereo not drawn) [Compound 102] | 7.5 ± 4.8 | 32.5 ± 3.5 | > 250 | > 250 | > 250 | 68 | > 100 | > 100 | –
NC1C(=O)NC2Cc3ccc(c(Cl)c3)Oc3cc4cc(c3O)Oc3ccc(cc3Cl)C(O)C3NC(=O)C(NC(=O)C4NC(=O)C(NC2=O)c2cc(O)cc(c2)Oc2cc1ccc2O)c1ccc(O)c(c1)-c1c(O)cc(O)cc1C(C(=O)O)NC3=O (stereo not drawn) [Compound 159] | – | – | – | – | – | 28 | 85 | > 100 | 9.9
CC(NC(=O)C1NC(=O)C2NC(=O)C(NC(=O)C3NC(=O)C4NC(=O)C(Cc5ccc(c(Cl)c5)Oc5cc3cc(c5O)Oc3ccc(cc3Cl)C2O)NC(=O)C(N)c2ccc(O)c(c2)Oc2cc(O)cc4c2)c2ccc(O)c(c2)-c2c(O)cc(O)cc21)C12CC3CC(CC(C3)C1)C2 (stereo not drawn) [Compound 160] | 3.3 ± 1.4 | 7.5 ± 0.7 | 92 ± 5 | 97 ± 10 | 106 | 27 | 56 | > 100 | 4.5
NC1C(=O)NC2Cc3ccc(c(Cl)c3)Oc3cc4cc(c3O)Oc3ccc(cc3Cl)C(O)C3NC(=O)C(NC(=O)C4NC(=O)C(NC2=O)c2cc(O)cc(c2)Oc2cc1ccc2O)c1ccc(O)c(c1)-c1c(O)cc(O)cc1C(C(=O)NC1CC2CCC1C2)NC3=O (stereo not drawn) [Compound 162] | 4.5 | 11 | – | – | – | 22 | ≥ 100 | > 100 | 4.7
O=C(NC1C(=O)NC2Cc3ccc(c(Cl)c3)Oc3cc4cc(c3O)Oc3ccc(cc3Cl)C(O)C3NC(=O)C(NC(=O)C4NC(=O)C(NC2=O)c2cc(O)cc(c2)Oc2cc1ccc2O)c1ccc(O)c(c1)-c1c(O)cc(O)cc1C(C(=O)O)NC3=O)C(=O)c1c[nH]c2ccccc12 (stereo not drawn) [Compound 163] | 10 | 15 | – | – | – | 26 | 63 | > 100 | 2.2
NC1C(=O)NC2Cc3ccc(c(Cl)c3)Oc3cc4cc(c3O)Oc3ccc(cc3Cl)C(O)C3NC(=O)C(NC(=O)C4NC(=O)C(NC2=O)c2cc(O)cc(c2)Oc2cc1ccc2O)c1ccc(O)c(c1)-c1c(O)cc(O)cc1C(C(=O)NCc1ccc(F)cc1)NC3=O (stereo not drawn) [Compound 165] | 9 ± 5.3 | 30 ± 7.1 | 240 ± 15 | ≥ 250 | > 250 | 26 | 80 | > 100 | 11
NC1C(=O)NC2Cc3ccc(c(Cl)c3)Oc3cc4cc(c3O)Oc3ccc(cc3Cl)C(O)C3NC(=O)C(NC(=O)C4NC(=O)C(NC2=O)c2cc(O)cc(c2)Oc2cc1ccc2O)c1ccc(O)c(c1)-c1c(O)cc(O)cc1C(C(=O)NCC12CC4CC(CC(C4)C1)C2)NC3=O (stereo not drawn) [Compound 166] | 1.8 ± 0.58 | 7 | 91 ± 2 | 112 ± 2 | 125 ± 30 | 31 | 49 | > 100 | 8.5
NC1C(=O)NC2Cc3ccc(c(Cl)c3)Oc3cc4cc(c3O)Oc3ccc(cc3Cl)C(O)C3NC(=O)C(NC(=O)C4NC(=O)C(NC2=O)c2cc(O)cc(c2)Oc2cc1ccc2O)c1ccc(O)c(c1)-c1c(O)cc(O)cc1C(C(=O)N(C(=O)NC1CCCCC1)C1CCCCC1)NC3=O (stereo not drawn) [Compound 167] | 6 ± 2.6 | 10 ± 2.8 | 130 ± 1 | 132 ± 9 | 165 ± 34 | 47 | 62 | > 100 | 7.7
